Test results published in patent US8889712B2, “IAP antagonists” (Bristol-Myers Squibb Company, priority 2012, dated 2014).
Like-named read-outs stand apart in the source and are kept apart here.

Experiments:
XIAP BIR3 = molecular target: T1, XIAP BIR3 (Homo sapiens, UniProt P98170); experiment: XIAP-BIR3/SMAC Homogeneous Time Resolved Fluorescence (HTRF) Assay; type: binding
T1 construct: His-BIR3 (241-356, XIAP)
Description: A. XIAP-BIR3/SMAC Homogeneous Time Resolved Fluorescence (HTRF) Assay Assays were performed in black, flat-bottom, 384-well plates. […] The reaction was incubated at room temperature for 60 minutes, following which 10 μl of mouse anti-6×His-terbium labeled Fab (Medarex, Cis-bio) was added to the reaction (40 μl) for an additional 30 minute incubation. […] Compounds were dissolved at 3 mM in dimethylsulfoxide (DMSO) and evaluated at eleven serially diluted concentrations. IC50 and Ki values were derived by non-linear regression analysis.

XIAP BIR2-3 = molecular target: T2, XIAP BIR2-3 (Homo sapiens, UniProt P98170, C202A/C213G); experiment: XIAP-BIR2-3 dimeric SMAC Peptide Homogeneous Time Resolved Fluorescence (HTRF) Assay; type: binding
T2 construct: His-BIR2-3 (125-356, C202A/C213G, XIAP)
T2 sequence (P98170 125-356 C202A/C213G): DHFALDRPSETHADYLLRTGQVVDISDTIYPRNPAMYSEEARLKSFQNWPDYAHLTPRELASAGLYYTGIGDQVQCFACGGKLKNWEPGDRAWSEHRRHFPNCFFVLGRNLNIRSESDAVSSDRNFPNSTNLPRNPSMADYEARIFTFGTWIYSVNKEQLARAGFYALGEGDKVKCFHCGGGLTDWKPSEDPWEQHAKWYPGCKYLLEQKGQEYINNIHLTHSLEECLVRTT
Description: B. […] Assays were performed in black, flat-bottom, 384-well plates. […] Compounds were dissolved at 3 mM in dimethylsulfoxide (DMSO) and evaluated at eleven serially diluted concentrations. IC50 and Ki values were derived by non-linear regression analysis.

[1] = 1 nM N-His-BIR3 (241-356, XIAP), 5 nM fluorescein labeled SMAC peptide, HTRF signal, read-out: XIAP BIR3 IC50
[2] = 0.5 nM N-His-BIR2-3 (125-356, C202A/C213G, XIAP), 20 nM fluorescein labeled dimeric SMAC peptide, HTRF signal, read-out: XIAP BIR2-3 IC50

T1 sequence (P98170 241-356): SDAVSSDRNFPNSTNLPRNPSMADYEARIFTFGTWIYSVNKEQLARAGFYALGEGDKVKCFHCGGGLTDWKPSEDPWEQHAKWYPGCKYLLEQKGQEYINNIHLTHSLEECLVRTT

| Structure (SMILES) | IC50 (XIAP BIR3; [1]) [nM] | IC50 (XIAP BIR2-3; [2]) [nM] | IC50 (XIAP BIR3) [nM] | IC50 (XIAP BIR2-3) [nM] |
| --- | --- | --- | --- | --- |
| CN[C@@H](C)C(=O)N[C@H](C(=O)N1Cc2cc(C(=O)N[C@H]3C[C@@H](C(=O)N[C@@H]4CCCc5ccccc54)N(C(=O)[C@@H](NC(=O)[C@H](C)NC)C(C)(C)C)C3)ccc2C[C@H]1C(=O)N[C@@H]1CCCc2ccccc21)C1CCCC1 [Example 12, (S)-2-((S)-2-Cyclopentyl-2-((S)-2-(methylamino)propanamido)acetyl)-N^7-((3S,5S)-1-((S)-3,3-dimethyl-2-((S)-2-(methylamino)propanamido)butanoyl)-5-(((R)-1,2,3,4-tetrahydronaphthalen-1-yl)carbamoyl)pyrrolidin-3-yl)-N^3-((R)-1,2,3,4-tetrahydronaphthalen-1-yl)-1,2,3,4-tetrahydroisoquinoline-3,7-dicarboxamide] | 19 | 15 | – | – |
| CN[C@@H](C)C(=O)N[C@H](C(=O)N1Cc2cc(C(=O)N[C@H]3C[C@@H](C(=O)NC4CCCc5ccccc54)N(C(=O)[C@@H](NC(=O)[C@H](C)NC)C(C)(C)C)C3)ccc2C[C@H]1C(=O)NC1CCCc2ccccc21)C1CCOCC1 (stereo partly drawn) [Example 13] | 6 | 2 | – | – |
| CCN[C@@H](C)C(=O)N[C@H](C(=O)N1C[C@@H](NC(=O)c2ccc3c(c2)CN(C(=O)[C@@H](NC(=O)[C@H](C)NC)C(C)(C)C)[C@H](C(=O)N[C@@H]2CCCc4ccccc42)C3)C[C@H]1C(=O)N[C@@H]1CCCc2ccccc21)C(C)(C)C [Example 14, (S)-2-((S)-3,3-Dimethyl-2-((S)-2-(methylamino)propanamido)butanoyl)-N^7-((3S,5S)-1-((S)-2-((S)-2-(ethylamino)propanamido)-3,3-dimethylbutanoyl)-5-(((R)-1,2,3,4-tetrahydronaphthalen-1-yl)carbamoyl)pyrrolidin-3-yl)-N^3-((R)-1,2,3,4-tetrahydronaphthalen-1-yl)-1,2,3,4-tetrahydroisoquinoline-3,7-dicarboxamide] | 29 | 15 | – | – |
| CCC(CC)[C@H](NC(=O)[C@H](C)NC)C(=O)N1C[C@@H](NC(=O)c2ccc3c(c2)CN(C(=O)[C@@H](NC(=O)[C@H](C)NC)C(C)(C)C)[C@H](C(=O)N[C@@H]2CCCc4ccccc42)C3)C[C@H]1C(=O)N[C@@H]1CCCc2ccccc21 [Example 17, (S)-2-((S)-3,3-Dimethyl-2-((S)-2-(methylamino)propanamido)butanoyl)-N^7-((3S,5S)-1-((S)-3-ethyl-2-((S)-2-(methylamino)propanamido)pentanoyl)-5-(((R)-1,2,3,4-tetrahydronaphthalen-1-yl)carbamoyl)pyrrolidin-3-yl)-N^3-((R)-1,2,3,4-tetrahydronaphthalen-1-yl)-1,2,3,4-tetrahydroisoquinoline-3,7-dicarboxamide] | 2 | 2 | – | – |
| CCC(CC)[C@H](NC(=O)[C@H](CC)NC)C(=O)N1Cc2cc(C(=O)N[C@H]3C[C@@H](C(=O)N[C@@H]4CCCc5ccccc54)N(C(=O)[C@@H](NC(=O)[C@H](C)NC)C(C)(C)C)C3)ccc2C[C@H]1C(=O)N[C@@H]1CCCc2ccccc21 [Example 19, (S)-N^7-((3S,5S)-1-((S)-3,3-Dimethyl-2-((S)-2-(methylamino)propanamido)butanoyl)-5-(((R)-1,2,3,4-tetrahydronaphthalen-1-yl)carbamoyl)pyrrolidin-3-yl)-2-((S)-3-ethyl-2-((S)-2-(methylamino)butanamido)pentanoyl)-N^3-((R)-1,2,3,4-tetrahydronaphthalen-1-yl)-1,2,3,4-tetrahydroisoquinoline-3,7-dicarboxamide] | 7 | 2 | – | – |
| CN[C@@H](C)C(=O)N[C@H](C(=O)N1Cc2cc(N[C@H]3C[C@@H](C(=O)N[C@@H]4CCCc5ccccc54)N(C(=O)[C@@H](NC(=O)[C@H](C)NC)C(C)(C)C)C3)ccc2C[C@H]1C(=O)N[C@@H]1CCCc2ccccc21)C(C)(C)C [Example 20, (S)-2-((S)-3,3-Dimethyl-2-((S)-2-(methylamino)propanamido)butanoyl)-7-(((3S,5S)-1-((S)-3,3-dimethyl-2-((S)-2-(methylamino)propanamido)butanoyl)-5-(((R)-1,2,3,4-tetrahydronaphthalen-1-yl)carbamoyl)pyrrolidin-3-yl)amino)-N—((R)-1,2,3,4-tetrahydronaphthalen-1-yl)-1,2,3,4-tetrahydroisoquinoline-3-carboxamide] | – | – | 13 | 3 |
| CN[C@@H](C)C(=O)N[C@H](C(=O)N1Cc2cc(O[C@H]3C[C@@H](C(=O)N[C@@H]4CCCc5ccccc54)N(C(=O)[C@@H](NC(=O)[C@H](C)NC)C(C)(C)C)C3)ccc2C[C@H]1C(=O)N[C@@H]1CCCc2ccccc21)C(C)(C)C [Example 21, (S)-2-((S)-3,3-Dimethyl-2-((S)-2-(methylamino)propanamido)butanoyl)-7-(((3S,5S)-1-((S)-3,3-dimethyl-2-((S)-2-(methylamino)propanamido)butanoyl)-5-(((R)-1,2,3,4-tetrahydronaphthalen-1-yl)carbamoyl)pyrrolidin-3-yl)oxy)-N—((R)-1,2,3,4-tetrahydronaphthalen-1-yl)-1,2,3,4-tetrahydroisoquinoline-3-carboxamide] | – | – | 30 | 3 |
| CN[C@@H](C)C(=O)N[C@H](C(=O)N1Cc2cc([C@H]3C[C@@H](C(=O)N[C@@H]4CCCc5ccccc54)N(C(=O)[C@@H](NC(=O)[C@H](C)NC)C(C)(C)C)C3)ccc2C[C@H]1C(=O)N[C@@H]1CCCc2ccccc21)C(C)(C)C [Example 22, (S)-2-((S)-3,3-Dimethyl-2-((S)-2-(methylamino)propanamido)butanoyl)-7-((3R,5S)-1-((S)-3,3-dimethyl-2-((S)-2-(methylamino)propanamido)butanoyl)-5-(((R)-1,2,3,4-tetrahydronaphthalen-1-yl)carbamoyl)pyrrolidin-3-yl)-N—((R)-1,2,3,4-tetrahydronaphthalen-1-yl)-1,2,3,4-tetrahydroisoquinoline-3-carboxamide] | – | – | 2 | 1 |

Further lines, with some results ahead:

| IC50 (XIAP BIR3; [1]) [nM] | IC50 (XIAP BIR2-3; [2]) [nM] | Structure (SMILES) | IC50 (XIAP BIR3) [nM] | IC50 (XIAP BIR2-3) [nM] |
| --- | --- | --- | --- | --- |
| 16 | 5 | CC[C@H](NC)C(=O)N[C@H](C(=O)N1C[C@@H](NC(=O)c2ccc3c(c2)CN(C(=O)[C@@H](NC(=O)[C@H](C)NC)C(C)(C)C)[C@H](C(=O)N[C@@H]2CCCc4ccccc42)C3)C[C@H]1C(=O)N[C@@H]1CCCc2ccccc21)C(C)(C)C [Example 15, (S)-N^7-((3S,5S)-1-((S)-3,3-Dimethyl-2-((S)-2-(methylamino)butanamido)butanoyl)-5-(((R)-1,2,3,4-tetrahydronaphthalen-1-yl)carbamoyl)pyrrolidin-3-yl)-2-((S)-3,3-dimethyl-2-((S)-2-(methylamino)propanamido)butanoyl)-N^3-((R)-1,2,3,4-tetrahydronaphthalen-1-yl)-1,2,3,4-tetrahydroisoquinoline-3,7-dicarboxamide] | – | – |
| 19 | 10 | CCC(CC)[C@H](NC(=O)[C@H](CC)NC)C(=O)N1C[C@@H](NC(=O)c2ccc3c(c2)CN(C(=O)[C@@H](NC(=O)[C@H](C)NC)C(C)(C)C)[C@H](C(=O)N[C@@H]2CCCc4ccccc42)C3)C[C@H]1C(=O)N[C@@H]1CCCc2ccccc21 [Example 16, (S)-2-((S)-3,3-Dimethyl-2-((S)-2-(methylamino)propanamido)butanoyl)-N^7-((3S,5S)-1-((S)-3-ethyl-2-((S)-2-(methylamino)butanamido)pentanoyl)-5-(((R)-1,2,3,4-tetrahydronaphthalen-1-yl)carbamoyl)pyrrolidin-3-yl)-N^3-((R)-1,2,3,4-tetrahydronaphthalen-1-yl)-1,2,3,4-tetrahydroisoquinoline-3,7-dicarboxamide] | – | – |
| 9 | 4 | CCN[C@@H](C)C(=O)N[C@H](C(=O)N1Cc2cc(C(=O)N[C@H]3C[C@@H](C(=O)N[C@@H]4CCCc5ccccc54)N(C(=O)[C@@H](NC(=O)[C@H](C)NC)C(C)(C)C)C3)ccc2C[C@H]1C(=O)N[C@@H]1CCCc2ccccc21)C(CC)CC [Example 18, (S)-N^7-((3S,5S)-1-((S)-3,3-Dimethyl-2-((S)-2-(methylamino)propanamido)butanoyl)-5-(((R)-1,2,3,4-tetrahydronaphthalen-1-yl)carbamoyl)pyrrolidin-3-yl)-2-((S)-3-ethyl-2-((S)-2-(ethylamino)propanamido)pentanoyl)-N^3-((R)-1,2,3,4-tetrahydronaphthalen-1-yl)-1,2,3,4-tetrahydroisoquinoline-3,7-dicarboxamide] | – | – |
| 4 | 3 | CN[C@@H](C)C(=O)N[C@H](C(=O)N1Cc2cc([C@H]3C[C@@H](C(=O)N[C@@H]4CCCc5ccccc54)N(C(=O)[C@@H](NC(=O)[C@H](C)NC)C(C)(C)C)C3)ccc2C[C@H]1C(=O)N[C@H](C)c1ccccc1F)C(C)(C)C [Example 23, (S)-2-((S)-3,3-Dimethyl-2-((S)-2-(methylamino)propanamido)butanoyl)-7-((3R,5S)-1-((S)-3,3-dimethyl-2-((S)-2-(methylamino)propanamido)butanoyl)-5-(((R)-1,2,3,4-tetrahydronaphthalen-1-yl)carbamoyl)pyrrolidin-3-yl)-N—((R)-1-(2-fluorophenyl)ethyl)-1,2,3,4-tetrahydroisoquinoline-3-carboxamide] | – | – |
